According to patent US7897578B2, “Peptides with anti-proliferative activity” (Societe de Conseils de Recherches et d'Applications …, priority 2006, dated 2011):
No end group written: not given here.

Columns and labels:
[1] = Toxicity test in xenografted athymic mice (weight of the animals); type: in vivo; details: 5 and 10 mg/kg intra-peritoneal
Method: 4/Toxicity Test of Compound 1:
(§1) Cancerous cells from human SHSY-5Y neuroblastomas (Code ATCC: CRL-2266) are cultured in DMEM medium (Dulbecco's Modified Eagle's Medium) containing 100 U/ml of penicillin and 100 μg/ml of streptomycin sulphate, complemented with 10% foetal calf serum. The cells thus cultured are then xenografted by sub-cutaneous route into the flanks of athymic mice.
After a latent period of several days, the SHSY-5Y cells proliferate and form a small, obvious tumour (approximately 70 mm^3).
Compound 1, at this stage of the tumour's growth, is injected by intra-peritoneal route in doses of 5 and 10 mg/kg.
The results are reproduced in FIG. 3 describing the development of the weight of the animals as a function of time, which is an indicator of the possible toxicity of the products tested in this athymic mouse model.

[2] = tested on: human SHSY-5Y neuroblastoma tumour xenograft; assay: In vivo cell proliferation test, SHSY-5Y cells xenografted into athymic mice; parameters: species or system athymic balb-c NCr-nu/nu mice; details: for reduction in the size of the tumour: after 21 days
Method: 3/In vivo Cell Proliferation Test on Cells of the SHSY-5Y Type with Compound 1:
as §1, with “balb-c NCr-nu/nu mice, aged 4 to 6 weeks.” for “mice.”
After a latent period of several days following the graft, the SHSY-SY cells proliferate and form a small tumour (approximately 70 mm^3) which is obvious under the flank of the animal.
Compound 1 is, at this stage of growth of the tumour, injected by intra-peritoneal route in doses of 5 and 10 mg/kg.
The results are reproduced in FIG. 2 describing the effect of compound 1 on growth kinetics and tumour volume.

YTVLSVGPGGLRSGRLPLQPRVQLDER-NH2 [Compound 1]
toxicity ([1]; inferred from animal weight): apparent absence of toxicity
effect on the weight of the animals ([1]; xenografted athymic mice): no effect
growth kinetics of the tumour ([2]; 5 mg/kg intra-peritoneal): slowing down
reduction in the size of the tumour ([2]; 5 mg/kg intra-peritoneal): approximately 20%
growth kinetics of the tumour ([2]; 10 mg/kg intra-peritoneal): very clear slowing down
reduction in the size of the tumour ([2]; 10 mg/kg intra-peritoneal): approximately 50%
anti-tumour activity ([2]; intra-peritoneal, 5 and 10 mg/kg, SHSY-5Y xenograft): dose-dependant anti-tumour activity
